In US20060189520A1, “Treatment of diabetes” (priority 2002, published 2006):
Where “and” joins values, the source holds several entries; their conditions need not be identical. Identical values can stand only once.

Test system: NOD mice with recent-onset diabetes
Assay: GLP-1 and gastrin therapy of recent-onset diabetes in NOD mice, fasting blood glucose
Type: in vivo, mouse
Conditions: NOD female mice, GLP-1 100 μg/kg/day, gastrin 3 μg/kg/day, i.p. twice a day
Description: In this example, the effect of treatment by a combination of GLP-1 and gastrin was examined in NOD mice with recent onset diabetes, to determine whether administration of both GLP-1 and gastrin would prevent severe hyperglycemia, ketoacidosis and death as well as increase pancreatic insulin content in NOD mice with recent-onset diabetes. The I.N.T.™ composition used was gastrin as synthetic human gastrin I having 17 amino acid residues with a Leu residue at amino acid position 15. The GLP-1 used was GLP-1 which is the biologically active fragment of human/mouse GLP-1 (having residues at positions 7-36 compared to the precursor from which the fragment is processed; obtained from Bachem H6795).
Non-obese diabetic (NOD) female mice, ages 12-14 weeks, were monitored for development of onset of diabetes (fasting blood glucose >8.0 to 15 mmol/l), and within 48 hours after onset of symptoms, two groups of mice were each treated as follows: one group was treated with vehicle only; and the other group was administered 100 μg/kg/day of GLP-1, each treatment administered via the intraperitoneal route twice daily.
Therapy was administered for 14 days. Animals were monitored weekly for fasting blood glucose (FBG) levels. FBG levels were measured at about 12 hours after food had been withdrawn, and 24 hours after the last peptide or vehicle injection. Upon cessation of therapy, all mice were monitored for FBG levels for the next 4 weeks (weeks 2-6) so as to determine whether prevention of hyperglycemia persisted after termination of therapeutic treatment.
The protocol includes sampling of these mice for data again at 6 weeks, and blood collected for assay of FBG and plasma C-peptide, and the mice are sacrificed for pancreatic insulin determinations and scoring of islet inflammation (insulitis). From the outset of treatment, mice received neither insulin-replacement treatment nor immunosuppression. The following parameters are assessed: survival rates, pancreatic insulin levels, presence of islet inflammation and fasting blood glucose levels.

GLP-1: biologically active fragment of human/mouse GLP-1 (having residues at positions 7-36); obtained from Bachem H6795
FBG (mM) at day: 0 (day 0 (start of treatment)): 12.3 ± 0.9 mM | FBG (mM) at day: 7 (day 7 of treatment): 14.1 ± 1.8 mM | FBG (mM) at day: 14 (day 14 (end of treatment)): 15.3 ± 2.6 mM | FBG (mM) at day: 18 (day 18 (treatment stopped at 14 days)): 15.8 mM and 15.8 ± 4.2 mM
